Experimental data published in patent publication US20260193180A1, “AUTOPHAGY INDUCING COMPOUNDS AND USES THEREOF” (SAMSARA THERAPEUTICS INC., priority 2022, published 2026).
Counter-ions that a name gives are not always drawn.

Test system: Human osteosarcoma U2OS cells
Test: Acidic vesicle formation (lysosome/autolysosome staining, LysoView 633 / LysoTracker Deep Red), stimulation of autophagy
Type: cell-based
Details: 24 hours; for activation at 10 µM: read-out: increase in acidic vesicle formation over the DMSO-treated control; for activation at 0.8 µM: read-out: Activity (percentage increase in acidic vesicle formation over the DMSO-treated control)
Protocol: Lysosomes play a fundamental role in the autophagic pathway by fusing with autophagosomes and creating ‘autolysosomes’ in order to digest their contents. Stimulation of lysosome and autolysosome formation by a compound is indicative of a stimulation of autophagy. The ability of compounds to stimulate lysosome and autolysosome formation, and thus autophagy, in live cells was assessed via fluorescent microscopy using various fluorescent stains for labelling and tracking acidic organelles (including lysosomes and autolysosomes) such as: LysoView™ 650 (70059 and 70059-T, Biotium), LysoView™633 (70058 and 70058-T, Biotium) and LysoTracker™ Deep Red (L12492, ThermoFisher Scientific). The cellular phenotype was quantitatively assessed for the induction of acidic vesicle formation and compared to a non-treated control, thus providing a measure of the ability of the compound under investigation to stimulate autophagy.
Representative procedure using LysoView™633 dye or LysoTracker™ Deep Red dye: Human osteosarcoma U2OS cells (40,000 cells/well) were seeded in a 24 well glass bottom plate (Sensoplate, Greiner Bio-One) and were incubated overnight in a humidified atmosphere at 37° C. and 5% CO2. Cells were grown in DMEM (Gibco) supplemented with 10% Fetal Bovine Serum (FBS) and 100 units/ml penicillin and 100 μg/ml streptomycin (Invitrogen). After the attachment period, cells were treated with different compounds of interest (at various concentrations in DMSO) or DMSO (non-treated control) in cell culture medium and were incubated for 24 hours. Compound-containing medium was removed and cells were incubated with pre-warmed cell culture medium containing 1× LysoView™ 633 (70058 and 70058-T, Biotium) or 50 nM LysoTracker™ Deep Red (L12492, ThermoFisher Scientific) for 45 minutes at 37° C. Finally, cell nuclei were stained for 10 minutes using Hoechst 33342 (1 μg/mL) and then the medium was replaced with fresh medium. The 24 well plate was then fitted into a heated stage on the microscope and cells maintained at 37° C. Images were captured using appropriate filter set for Cy5 and DAPI detection with the EVOS M7000 Microscope (ThermoFisher Scientific). The cellular phenotype was visually assessed for the induction of acidic vesicle formation relative to the non-treated control; multiple images were acquired and analysed using ImageJ or Cell Profiler.

Row | Structure (SMILES) | activation at 10 µM [%] | activation at 0.8 µM [%]
1 | CCOc1ccc(C(F)(F)F)cc1CN1CCN[C@@H](C)C1 [Compound 1, (S)-1-(2-ethoxy-5-(trifluoromethyl)benzyl)-3-methylpiperazine hydrochloride] | ≥ 25 | –
2 | CCOc1ccc(C(F)(F)F)cc1CN1CC[C@@H](CN)C1 [Compound 2, (S)-(1-(2-ethoxy-5-(trifluoromethyl)benzyl)pyrrolidin-3-yl)methanamine hydrochloride] | ≥ 25 | 10 to 30
3 | CCCOc1ccc(Cl)cc1CN1CC[C@@H](CN)C1 [Compound 3, (S)-(1-(5-chloro-2-propoxybenzyl)pyrrolidin-3-yl)methanamine hydrochloride] | ≥ 25 | 30 to 50
4 | NC[C@@H]1CCN(Cc2cc(Cl)ccc2OCC2CC2)C1 [Compound 4, (S)-(1-(5-chloro-2-(cyclopropylmethoxy)benzyl)pyrrolidin-3-yl)methanamine hydrochloride] | ≥ 25 | 30 to 50
5 | CCOc1cc(Cl)c(Cl)cc1CN1CC[C@@H](CN)C1 [Compound 5, (S)-(1-(4,5-dichloro-2-ethoxybenzyl)pyrrolidin-3-yl)methanamine hydrochloride] | ≥ 25 | 30 to 50
6 | NC[C@@H]1CCN(Cc2cc(Cl)c(Cl)cc2OCC2CC2)C1 [Compound 6, (S)-(1-(4,5-dichloro-2-(cyclopropylmethoxy)benzyl)pyrrolidin-3-yl)methanamine hydrochloride] | ≥ 25 | 50 to 100
7 | CCOc1ccc(Cl)cc1CN1CCC[C@@H](CN)C1 [Compound 7, (S)-(1-(5-chloro-2-ethoxybenzyl)piperidin-3-yl)methanamine hydrochloride] | ≥ 25 | 30 to 50
8 | NC[C@@H]1CCCN(Cc2cc(Cl)ccc2OCC2CC2)C1 [Compound 8, (S)-(1-(5-chloro-2-(cyclopropylmethoxy)benzyl)piperidin-3-yl)methanamine hydrochloride] | ≥ 25 | 10 to 30
9 | CCOc1ccc(Cl)cc1CN1CCN(CC)CC1 [Compound 10, 1-(5-chloro-2-ethoxybenzyl)-4-ethylpiperazine] | ≥ 25 | 10 to 30
10 | CCOc1ccc(Cl)cc1CN1CCC(N(C)C)CC1 [Compound 11, 1-(5-chloro-2-ethoxybenzyl)-N,N-dimethylpiperidin-4-amine] | ≥ 25 | 10 to 30
11 | CCOc1ccc(Cl)cc1CN1CCC[C@H]1CN [Compound 13, (S)-(1-(5-chloro-2-ethoxybenzyl)pyrrolidin-2-yl)methanamine hydrochloride] | ≥ 25 | –
12 | CCOc1ccc(Cl)cc1CN1CCC[C@@H]1CN [Compound 14, (R)-(1-(5-chloro-2-ethoxybenzyl)pyrrolidin-2-yl)methanamine hydrochloride] | ≥ 25 | –
13 | CCOc1ccc(Cl)cc1CN1CCC[C@@H](N)C1 [Compound 15, (R)-1-(5-chloro-2-ethoxybenzyl)piperidin-3-amine hydrochloride] | ≥ 25 | 10 to 30
14 | CCOc1ccc(Cl)cc1CN1CCC[C@H](N)C1 [Compound 16, (S)-1-(5-chloro-2-ethoxybenzyl)piperidin-3-amine hydrochloride] | ≥ 25 | –
15 | CCOc1ccc(Cl)cc1CN1CC(CN)C1 [Compound 17, (1-(5-chloro-2-ethoxybenzyl)azetidin-3-yl)methanamine hydrochloride] | ≥ 25 | 50 to 100
16 | CCOc1ccc(Cl)cc1CN1CCN(C(C)C)CC1 [Compound 18, 1-(5-chloro-2-ethoxybenzyl)-4-isopropylpiperazine] | ≥ 25 | 10 to 30

Row | Structure (SMILES) | activation at 10 µM [%] | activation at 0.8 µM [%]
17 | CCOc1ccc(Cl)cc1CCN1CCC[C@H](N)C1 [Compound 19, (S)-1-(5-chloro-2-ethoxyphenethyl)piperidin-3-amine hydrochloride] | ≥ 25 | –
18 | NC[C@@H]1CCN(CCc2ccc(OCC3CC3)c(Cl)c2)C1 [Compound 20, (S)-(1-(3-chloro-4-(cyclopropylmethoxy)phenethyl)pyrrolidin-3-yl)methanamine hydrochloride] | ≥ 25 | –
19 | CCOc1cc(F)c(F)cc1CN1CC[C@H](CN)C1 [Compound 21, (R)-(1-(2-ethoxy-4,5-difluorobenzyl)pyrrolidin-3-yl)methanamine hydrochloride] | ≥ 25 | –
20 | CCOc1cc(F)c(F)cc1CN1CC[C@@H](CN)C1 [Compound 22, (S)-(1-(2-ethoxy-4,5-difluorobenzyl)pyrrolidin-3-yl)methanamine hydrochloride] | ≥ 25 | –
21 | NC[C@H]1CCN(Cc2cc(Cl)ccc2OCCO)C1 [Compound 24, (R)-2-(2-((3-(aminomethyl)pyrrolidin-1-yl)methyl)-4-chlorophenoxy)ethan-1-ol hydrochloride] | ≥ 25 | –
22 | NC[C@@H]1CCN(Cc2cc(Cl)ccc2OCCO)C1 [Compound 25, (S)-2-(2-((3-(aminomethyl)pyrrolidin-1-yl)methyl)-4-chlorophenoxy)ethan-1-ol hydrochloride] | ≥ 25 | 30 to 50
23 | CCCCOc1ccc(Cl)cc1CN1CC[C@H](CN)C1 [Compound 26, (R)-(1-(2-butoxy-5-chlorobenzyl)pyrrolidin-3-yl)methanamine hydrochloride] | ≥ 25 | > 100
24 | CCCCOc1ccc(Cl)cc1CN1CC[C@@H](CN)C1 [Compound 27, (S)-(1-(2-butoxy-5-chlorobenzyl)pyrrolidin-3-yl)methanamine hydrochloride] | ≥ 25 | > 100
25 | CCOc1ccc(Cl)cc1CN1CCO[C@@H](CN)C1 [Compound 28, (S)-(4-(5-chloro-2-ethoxybenzyl)morpholin-2-yl)methanamine hydrochloride] | ≥ 25 | 10 to 30
26 | CCOc1ccc(Cl)cc1CN1CCO[C@H](CN)C1 [Compound 29, (R)-(4-(5-chloro-2-ethoxybenzyl)morpholin-2-yl)methanamine hydrochloride] | ≥ 25 | 50 to 100
27 | CCOc1cc(Cl)cc(CN2CC[C@@H](CN)C2)c1 [Compound 31, (S)-(1-(3-chloro-5-ethoxybenzyl)pyrrolidin-3-yl)methanamine hydrochloride] | ≥ 25 | > 100
28 | CCCOc1ccc(OC(F)(F)F)cc1CN1CCN[C@@H](C)C1 [Compound 32, (S)-3-methyl-1-(2-propoxy-5-(trifluoromethoxy)benzyl) piperazine hydrochloride] | ≥ 25 | 50 to 100
29 | NC[C@@H]1CCN(CCc2cc(Cl)cc3c2OCO3)C1 [Compound 33, (S)-(1-(2-(6-chlorobenzo[d][1,3]dioxol-4-yl)ethyl)pyrrolidin-3-yl)methanamine hydrochloride] | ≥ 25 | –
30 | CCOc1ccc(Cl)c(Cl)c1CCN1CC[C@@H](CN)C1 [Compound 34, (S)-(1-(2,3-dichloro-6-ethoxyphenethyl)pyrrolidin-3-yl)methanamine hydrochloride] | ≥ 25 | –
31 | CCOc1cc(Cl)c(Cl)cc1CCN1CC[C@@H](CN)C1 [Compound 35, (S)-(1-(4,5-dichloro-2-ethoxyphenethyl)pyrrolidin-3-yl)methanamine hydrochloride] | ≥ 25 | –
